Data from PubChem BioAssay AID2038 (NMMLSC, 2009).
Activity calls are given as the source filed them. How the calls were made is not given here.

Molecular target: GTPase HRas (Homo sapiens) (UniProt P01112)
Assay: wildtype Ras GTP binding inhibitors, SAR follow-up, biochemical, additional analogs, multiplex flow cytometry, Ki (AID 2038)
Conditions: Multiplex bead flow cytometry, fluorescent GTP binding

GTPase HRas (Homo sapiens), sequence (P01112 whole entry, looked up): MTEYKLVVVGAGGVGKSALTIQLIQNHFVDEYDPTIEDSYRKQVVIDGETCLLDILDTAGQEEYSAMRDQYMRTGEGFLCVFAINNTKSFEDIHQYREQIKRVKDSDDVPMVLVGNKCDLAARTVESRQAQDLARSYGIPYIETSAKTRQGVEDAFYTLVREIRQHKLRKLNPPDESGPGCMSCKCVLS

| SMILES | EC50 |
| --- | --- |
| O=C1C(c2c(O)[nH]c3c(Br)cccc23)=Nc2ccccc21 | > 30 µM (inactive) |
| O=C1C(c2c(O)[nH]c3c(F)cccc23)=Nc2ccccc21 | > 30 µM (inactive) |
| COc1ccc2cc([C@H](C)C(=O)O)ccc2c1 | > 30 µM (inactive) |
| O=C1C(c2c(O)[nH]c3c(Cl)cccc23)=Nc2ccccc21 | > 30 µM (inactive) |
| O=C1C(c2c(O)[nH]c3ccccc23)=Nc2ccccc21 | > 30 µM (inactive) |
| O=C1N=c2ccccc2=C1c1[nH]c(=S)[nH]c1O | > 30 µM (inactive) |
| O=C1C(c2c(O)[nH]c3ccc(Br)cc23)=Nc2ccccc21 | > 30 µM (inactive) |
| O=C1N=c2ccccc2=C1c1[nH]c(=O)[nH]c1O | > 30 µM (inactive) |
| O=Nc1c(-c2c(O)[nH]c3ccccc23)[nH]c2ccccc12 | > 30 µM (inactive) |
| O=Nc1c(-c2c(O)[nH]c3ccc(Br)cc23)[nH]c2ccccc12 | > 30 µM (inactive) |
| O=Nc1c(-c2c(O)[nH]c3c(Br)cccc23)[nH]c2ccccc12 | > 37.5 µM (inactive) |
| O=Nc1c(-c2c(O)[nH]c3c(F)cccc23)[nH]c2ccccc12 | > 30 µM (inactive) |
| O=Nc1c(-c2c(O)[nH]c3c(Cl)cccc23)[nH]c2ccccc12 | > 30 µM (inactive) |

Same assay, conditions: Multiplex bead flow cytometry, fluorescent GTP binding; measured here: Ki from EC50

| SMILES | Ki |
| --- | --- |
| COc1ccc2cc([C@@H](C)C(=O)O)ccc2c1 | 0.49 µM |
| O=C(C#Cc1ccccc1)c1ccc(F)cc1 | 4.84 µM |
| O=Nc1c(-c2c(O)[nH]c3c(Br)cccc23)[nH]c2ccccc12 | 5.85 µM |
